Several values for one entry are separate records, joined by “and”; a condition that tells them apart may be missing. Identical values can stand only once. Counter-ions that a name gives are not always drawn. Like-named read-outs stand apart in the source and are kept apart here.
Key:
[1] = test system: NMDA receptor; test: Inhibition of NMDA/glycine-induced increases in intracellular calcium in cultured rat cerebellar granule cells (RCGC); assay type: cell-based; conditions: for IC50: read-out: IC50 (μM) vs. NMDA
[2] = test system: mean arterial blood pressure; conditions: for no effect on mean arterial blood pressure / no (significant) cardiovascular activity at doses up to: i.v.
[3] = test system: motor performance; test: Acute motor impairment (rotorod) in mice; conditions: Frings mice; for TD50, acute motor impairment: i.c.v. injection
Method: (§1) In this assay, Frings and CF1 mice were injected with test compound and placed on a knurled rod which rotated at a speed of 6 rpm. The ability of the mice to maintain equilibrium for long periods of time was determined; those mice that were unable to maintain equilibrium on the rotorod for 1 min in each of 3 trials were considered impaired.

[4] = molecular target: NMDA receptor-ionophore complex (site labeled by [3H]MK-801); test: Inhibition of [3H]MK-801 binding in rat cortical/hippocampal washed membrane preparations; conditions: read-out: IC50 (μM) vs. [3H]MK-801
[5] = test system: sound-induced seizures; test: Sound-induced seizures in Frings mice (reflex epilepsy); assay type: in vivo; conditions: for IC50, prevention of sound-induced seizures: intracerebroventricular (i.c.v.) injection; for ED50: Mus musculus, ip, Frings mice
[6] = in vivo; conditions: Frings, mouse, in vivo, ip
Method: as §1

[7] = molecular target: T1, dopamine uptake site (Cavia porcellus, UniProt H0WCX4); test: Dopamine uptake binding assay: [3H]WIN-35,428 binding to guinea pig striatal membranes
T1 construct: from tissue; host or cells: guinea pig striatal membranes (per the assay title)
T1 sequence (H0WCX4 1-619): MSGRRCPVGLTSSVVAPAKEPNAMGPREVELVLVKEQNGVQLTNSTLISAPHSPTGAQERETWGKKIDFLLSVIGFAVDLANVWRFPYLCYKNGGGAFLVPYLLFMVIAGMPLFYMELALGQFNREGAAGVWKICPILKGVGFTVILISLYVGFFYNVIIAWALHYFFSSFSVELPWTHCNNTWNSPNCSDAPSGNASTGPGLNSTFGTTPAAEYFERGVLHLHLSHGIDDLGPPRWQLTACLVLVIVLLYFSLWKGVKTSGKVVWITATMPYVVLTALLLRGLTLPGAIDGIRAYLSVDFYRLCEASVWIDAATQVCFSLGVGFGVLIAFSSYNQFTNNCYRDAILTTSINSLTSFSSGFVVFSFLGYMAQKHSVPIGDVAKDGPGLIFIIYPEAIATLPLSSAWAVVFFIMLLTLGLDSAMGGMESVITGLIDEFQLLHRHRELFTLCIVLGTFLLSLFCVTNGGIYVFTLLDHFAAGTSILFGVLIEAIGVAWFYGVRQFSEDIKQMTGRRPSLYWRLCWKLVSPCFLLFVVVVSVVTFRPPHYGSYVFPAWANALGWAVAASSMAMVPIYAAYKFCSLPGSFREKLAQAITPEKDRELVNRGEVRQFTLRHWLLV

[8] = molecular target: T2, norepinephrine uptake site (Rattus norvegicus, UniProt Q63380); test: Norepinephrine uptake binding assay: [3H]desipramine binding to rat cortical membranes
T2 construct: from tissue; host or cells: rat cortical membranes (per the assay title)
T2 sequence (Q63380 1-617): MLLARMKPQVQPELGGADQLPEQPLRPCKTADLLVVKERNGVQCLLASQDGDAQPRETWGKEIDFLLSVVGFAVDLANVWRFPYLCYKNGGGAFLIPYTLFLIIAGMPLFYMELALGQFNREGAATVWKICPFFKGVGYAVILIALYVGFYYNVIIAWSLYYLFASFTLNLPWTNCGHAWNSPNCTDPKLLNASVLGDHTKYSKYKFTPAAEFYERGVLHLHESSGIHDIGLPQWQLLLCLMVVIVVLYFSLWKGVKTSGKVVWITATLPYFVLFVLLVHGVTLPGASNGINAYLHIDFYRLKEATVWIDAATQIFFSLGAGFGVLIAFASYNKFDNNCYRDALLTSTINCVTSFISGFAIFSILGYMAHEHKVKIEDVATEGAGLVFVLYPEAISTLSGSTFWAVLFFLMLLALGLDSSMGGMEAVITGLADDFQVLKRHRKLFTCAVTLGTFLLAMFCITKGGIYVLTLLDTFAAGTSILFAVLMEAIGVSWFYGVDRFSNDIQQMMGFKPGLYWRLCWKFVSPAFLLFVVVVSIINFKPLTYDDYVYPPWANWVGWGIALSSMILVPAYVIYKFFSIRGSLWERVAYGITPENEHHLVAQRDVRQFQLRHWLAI

[9] = test system: central muscarinic cholinergic receptor; assay type: binding, rat
[10] = test system: behavior; test: Behavioral effects in conscious male NMRI mice
[11] = molecular target: T3, serotonin uptake site (Rattus norvegicus, UniProt P31652); test: Serotonin uptake binding assay: [3H]citalopram binding to rat forebrain membranes
T3 construct: from tissue; host or cells: rat forebrain membranes (per the assay title)
T3 sequence (P31652 whole entry): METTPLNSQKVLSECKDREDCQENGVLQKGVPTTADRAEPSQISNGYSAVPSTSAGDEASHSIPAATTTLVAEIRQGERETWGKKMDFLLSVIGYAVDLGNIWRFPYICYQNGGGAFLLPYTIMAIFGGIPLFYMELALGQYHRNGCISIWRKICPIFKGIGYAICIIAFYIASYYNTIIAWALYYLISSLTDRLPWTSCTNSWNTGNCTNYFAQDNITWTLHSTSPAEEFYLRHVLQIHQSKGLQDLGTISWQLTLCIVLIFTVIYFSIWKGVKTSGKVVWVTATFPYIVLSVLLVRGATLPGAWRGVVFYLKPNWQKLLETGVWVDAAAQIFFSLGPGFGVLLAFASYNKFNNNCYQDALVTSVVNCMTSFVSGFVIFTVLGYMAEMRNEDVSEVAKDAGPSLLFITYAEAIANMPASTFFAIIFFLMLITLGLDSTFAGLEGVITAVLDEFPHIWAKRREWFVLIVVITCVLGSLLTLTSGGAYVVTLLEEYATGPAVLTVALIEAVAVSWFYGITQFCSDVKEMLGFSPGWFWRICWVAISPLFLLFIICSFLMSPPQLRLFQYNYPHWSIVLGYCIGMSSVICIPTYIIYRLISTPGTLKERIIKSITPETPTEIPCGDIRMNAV

[12] = NMDA/glycine-induced increases in intracellular calcium, cultured rat cerebellar granule cells
[13] = rat cortical/hippocampal washed membranes
[14] = rat cortical/hippocampal washed membranes, hydrochloride

Row | Structure (SMILES) | IC50 [1, 12] | IC50 [4, 13] | other results
1 | CCNCCCNCCCNCCCNC(=O)Cc1c[nH]c2ccc(F)cc12 [Compound 11] | 4 µM | – | Drop in Mean Arterial Blood Pressure ([2]; 1 mg/kg i.v., rats): 20 mm Hg at 1; Drop in Mean Arterial Blood Pressure: duration ([2]; 1 mg/kg i.v., rats): mg/kg i.v., 30 min; duration of the hypotensive effect ([2]; systemic administration in rats): approximately 30 min
2 | NCCCOCCCCOCCCNC(=O)Cc1c[nH]c2ccc(F)cc12 [Compound 12] | 6 µM | 98 µM | TD50, acute motor impairment [3]: 30.2 µg; IC50, prevention of sound-induced seizures [5]: 12.2 µg; no effect on mean arterial blood pressure / no (significant) cardiovascular activity at doses up to ([2]; rats): ≤ 37.3 µmol/kg; no effect on mean arterial blood pressure / no (significant) cardiovascular activity at doses up to ([2]; rats, listed as Compounds 12): up to 37.3 μmoles/kg
3 | NCCCOCCCCOCCCNC(=O)Cc1cccc2ccccc12 [Compound 14] | 8.8 µM | – | TD50, acute motor impairment [3]: 30.8 µg; IC50, prevention of sound-induced seizures [5]: 13.9 µg
4 | CC(CN)C(c1cccc(F)c1)c1cccc(F)c1 (centres unmarked) [Compound 21, 3,3-bis(3-fluorophenyl)-2-methyl-1-propylamine] | 0.038 µM | 0.457 µM | TD50 [6]: 15.3 mg/kg; ED50 [5]: 3.41 mg/kg
5 | NCCC(c1cccc(Cl)c1)c1cccc(Cl)c1 [Compound 31, 3,3-bis(3-chlorophenyl)-1-propylamine] | 0.052 µM | 1.3 µM | TD50 [6]: 10 to 20 mg/kg; ED50 [5]: 6 mg/kg
6 | C[C@H](CN)C(c1cccc(F)c1)c1cccc(F)c1 [Compound 34, 3,3-bis(3-fluorophenyl)-2-methyl-1-propylamine] | 0.426 µM | 2.7 µM | Monoamine uptake binding assays: dopamine uptake binding assay, percent block ([7]; at 0.1 μM): 60% at; Monoamine uptake binding assays: dopamine uptake binding assay, percent block ([7]; at 10 μM): 0.1^f99% at; TD50 [6]: 10 to 15 mg/kg; Monoamine uptake binding assays: norepinephrine uptake binding assay, percent block ([8]; at 0.1 μM): 10^f10% at; Monoamine uptake binding assays: norepinephrine uptake binding assay, percent block ([8]; at 10 μM): 0.1^g64% at; Central muscarinic cholinergic receptor: percent block of [3H]QNB binding ([9]; at 0.1 μM): 25% at; Central muscarinic cholinergic receptor: percent block of [3H]QNB binding ([9]; at 10 μM): 0.199% at; ED50 [5]: 22 mg/kg; behavioral effects ([10]; 2 mg/kg i.p.): hyperthermia; behavioral effects ([10]; 4 mg/kg i.p.): no behavioral effects; behavioral effects ([10]; 8 mg/kg i.p.): excitation, increased reactivity to touch, and hypothermia; behavioral effects ([10]; 64 mg/kg i.p.): convulsions; behavioral effects ([10]; 16 and 32 mg/kg i.p.): excitation, Straub tail, tremor, jumping, stereotypies, hypothermia, and mydriasis; behavioral effects ([10]; 128 and 256 mg/kg i.p.): convulsions and death; Monoamine uptake binding assays: serotonin uptake binding assay, percent block ([11]; at 0.1 μM): 10^g12% at; Monoamine uptake binding assays: serotonin uptake binding assay, percent block ([11]; at 10 μM): 0.1^h79% at
7 | C[C@@H](N)CC(c1cccc(F)c1)c1cccc(F)c1 [Compound 51, 3,3-bis(3-fluorophenyl)-1-methyl-1-propylamine] | 1.1 µM | 4.5 µM | TD50 (motor impairment) ([3]; i.p.): 13.6 mg/kg; ED50 [5]: 9.1 mg/kg
8 | Cc1ccc(F)cc1C(CCN)c1cccc(F)c1 (centres unmarked) [Compound 57, 3-(3-fluorophenyl)-3-(3-fluoro-6-methylphenyl)-1-propylamine] | 0.028 µM | 0.063 µM | TD50 [6]: 6 to 8 mg/kg; ED50 [5]: 1 mg/kg
9 | N[C@@H]1CCCC1C(c1cccc(F)c1)c1cccc(F)c1 (some centres unmarked) [Compound 64] | 0.309 µM | 0.851 µM | Monoamine uptake binding assays: dopamine uptake binding assay, percent block ([7]; at 0.1 μM): 50% at; Monoamine uptake binding assays: dopamine uptake binding assay, percent block ([7]; at 10 μM): 0.1^f99% at; Monoamine uptake binding assays: norepinephrine uptake binding assay, percent block ([8]; at 0.1 μM): 8% at; Monoamine uptake binding assays: norepinephrine uptake binding assay, percent block ([8]; at 10 μM): 0.1^g65% at; Central muscarinic cholinergic receptor: percent block of [3H]QNB binding ([9]; at 0.1 μM): 11% at; Central muscarinic cholinergic receptor: percent block of [3H]QNB binding ([9]; at 10 μM): 0.183% at; Monoamine uptake binding assays: serotonin uptake binding assay, percent block ([11]; at 0.1 μM): 10^g29% at; Monoamine uptake binding assays: serotonin uptake binding assay, percent block ([11]; at 10 μM): 0.1^h68% at
10 | NCCC(Oc1cccc(F)c1)c1cccc(F)c1 (centres unmarked) [Compound 119] | 0.115 µM | 0.087 µM | TD50 [6]: 26.3 mg/kg; ED50 [5]: 7 mg/kg
11 | NCCC(Oc1cccc(Cl)c1)c1cccc(F)c1 (centres unmarked) [Compound 120] | 0.101 µM | 0.074 µM | TD50 [6]: 20 to 30 mg/kg; ED50 [5]: 4.77 mg/kg
12 | NCCC(Oc1ccccc1F)c1cccc(F)c1 (centres unmarked) [Compound 122] | 0.209 µM | 0.342 µM | TD50 [6]: 15.3 mg/kg; ED50 [5]: 4.7 mg/kg
13 | NCCC1c2ccccc2CCc2ccccc21 [Compound 156, 5-(2-Aminoethyl)-5H-10,11-dihydrodibenzo[a,d]cycloheptene hydrochloride] | 0.069 µM | – | TD50 [6]: 17.4 mg/kg; IC50 [4, 14]: 0.09 µM and 0.081 µM; ED50 [5]: 5 mg/kg
14 | CCC(NCCC(c1ccccc1)c1ccccc1)c1cccc(Cl)c1 (centres unmarked) [Compound 159] | 0.185 µM | 10.4 µM | –
15 | CCC(NCCC(c1ccccc1)c1ccccc1)c1ccc(Cl)cc1 (centres unmarked) [Compound 160] | 7.35 µM | 48.9 µM | –
16 | CCC(NCCC(c1ccccc1)c1ccccc1)c1cccc(Br)c1 (centres unmarked) [Compound 161] | 0.247 µM | 5.62 µM | –
17 | CCC(NCCC(c1ccccc1)c1ccccc1)c1ccccc1F (centres unmarked) [Compound 163] | 0.326 µM | 10.3 µM | –

Row | Structure (SMILES) | IC50 [1, 12] | IC50 [4, 13] | other results
18 | CCC(NCCC(c1ccccc1)c1ccccc1)c1cccc(F)c1 (centres unmarked) [Compound 164] | 0.475 µM | 18.3 µM | –
19 | CCC(NCCC(c1ccccc1)c1ccccc1)c1ccc(F)cc1 (centres unmarked) [Compound 165] | 0.337 µM | 171 µM | –
20 | CCC(NCCC(c1ccccc1)c1ccccc1)c1ccc(OC)cc1 (centres unmarked) [Compound 166] | 0.619 µM | 36.7 µM | –
21 | CCC(NCCC(c1ccccc1)c1ccccc1)c1cccc(C)c1 (centres unmarked) [Compound 168] | 0.092 µM | 17.4 µM | –
22 | CCC(NCCC(c1ccccc1)c1ccccc1)c1ccc(C)cc1 (centres unmarked) [Compound 169] | 0.298 µM | 26.7 µM | –
23 | CCC(NCCC(c1ccccc1)c1ccccc1)c1cccc([N+](=O)[O-])c1 (centres unmarked) [Compound 170] | 0.238 µM | 57 µM | –
24 | c1ccc(C(CCNC(c2ccccc2)C2CC2)c2ccccc2)cc1 (centres unmarked) [Compound 171] | 0.31 µM | 39.6 µM | –
25 | COc1ccc(C(=CCN)c2cccc(F)c2)cc1F [Compound 172, (E))- and (Z)-3-(3-Fluoro-4-methoxy)-3-(3-fluorophenyl)allylamine hydrochloride] | 38 µM | 37.3 µM | –
26 | Cc1ccccc1OC(CCN)c1cccc(F)c1 (centres unmarked) [Compound 181] | 0.081 µM | 0.632 µM | –
27 | NCCC1c2ccccc2Oc2ccccc21 [Compound 182] | 2.6 µM | 7.05 µM | –
28 | NCCC1c2ccccc2Sc2ccccc21 [Compound 183] | 0.676 µM | 5.01 µM | –
29 | NCCC1c2ccccc2C=Cc2ccccc21 [Compound 184] | 1.5 µM | 1.51 µM and 1.65 µM | –
30 | NCC[C@H](Oc1cccc(F)c1)c1ccccc1 [Compound 186] | 0.155 µM | 0.123 µM | –
31 | NCCC1c2ccccc2COc2ccccc21 (centres unmarked) [Compound 187, 11-(2-Aminoethyl)-11H-10,11-dihydrodibenzo[b,c]oxepine hydrochloride] | 1.78 µM | – | IC50 [4, 14]: 2.01 µM and 2.06 µM
32 | NCCN1c2ccccc2CCc2ccccc21 [Eli Lilly Compound, reference compound] | 0.609 µM | 1.17 µM | –
33 | CNCCC=C1c2ccccc2CCc2ccccc21 [Nortriptyline, reference compound] | – | – | IC50 [4]: 5.67 µM; IC50 [1]: 3.7 µM
34 | CNCCCC1c2ccccc2C=Cc2ccccc21 [protriptyline, reference compound] | ≤ 10 µM | 21.4 µM | % inhibition vs. NMDA [1]: 73% @ 10 μM
